Data on 52 sequences can be found in the supplement of paper PMC11208160.
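Note: IS621 bridge recombinase in Escherichia coli cells against a fixed T5 target plasmid.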

A short description of this data set: recombinant UMI read abundance after kanamycin selection (control-corrected) (log10(CPM+1)); higher = more efficient recombination; extreme values may be limits of the assay; sequences stand for … in AGTGCAGAGAAAATCGGCCAGTTTTCTCTGCCTGCAGTCCGCATGCCGTGGGACCCCTTGGGTTCTAACCTGTTGCCTAGATTTATGCAGCGGACTGCCTTTCTCCCAAAGTGATAAACCGG…AGGTTGGTTTCACT; site = the 11-nt donor. The method in brief:
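For the IS621 bridge recombinase, a pooled Escherichia coli screen tested donor and donor-binding-loop pairs. Cells received the pair library together with a target plasmid encoding a fixed target and T7-inducible recombinase, then went onto IPTG (0.07 mM) plus kanamycin or unselected plates in duplicate. After PCR across the donor–target junction and sequencing, recombinant UMI counts were normalized to CPM, averaged, and scaled by control-derived factors. Each value is given as log10(CPM+1).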
On to “GTTCGAGCATGGACCGGTTTTCCCGGTAATCCGTATTTGCA (site TTTCGAGCTTG)”, for which the “recombinant UMI read abundance (log10)” value worked out at 0.829.
Next, “GTTCGAGCATGGACCGGTTTTCCCGGTAATCCGTATTTGCC (site GTTCGAGCTAG)”: 0.379; “GTTCGAGCATGGACCGGTTTTCCCGGTAATCCGTATTTGCC (site GTTCGAGCTCG)”: 0.00775.
Next, “GTTCGAGCATGGACCGGTTTTCCCGGTAATCCGTATTTGCC (site GTTCGAGCTGG)”: 1.42.
For “GTTCGAGCATGGACCGGTTTTCCCGGTAATCCGTATTTGCC (site GTTCGAGCTTG)”, the “recombinant UMI read abundance (log10)” value stood at 0.317.
Regarding “GTTCGAGCATGGACCGGTTTTCCCGGTAATCCGTATTTGGG (site GTTCGAGCTCC)”, the “recombinant UMI read abundance (log10)” value stood at 0.00765.
With “GTTCGGCCATGGACCGGTTTTCCCGGTAATCCGTATTTGGT (site GTTCGGCCTAC)” the figure was 0.00718; with “GTTCTATCATGGACCGGTTTTCCCGGTAATCCGTATTTGTG (site GTTCTATCTCA)”, 1.02; with “GTTCTCACATGGACCGGTTTTCCCGGTAATCCGTATTTGGT (site GTTCTCACTAC)”, 0.234.
With “GTTGCGGCATGGACCGGTTTTCCCGGTAATCCGTATTTGCT (site ATTGCGGCTAG)” the figure was 1.03; with “GTTGCGGCATGGACCGGTTTTCCCGGTAATCCGTATTTGCT (site CTTGCGGCTAG)”, 0.745.
With “GTTGCGGCATGGACCGGTTTTCCCGGTAATCCGTATTTGCT (site GTTGCGGCTAG)” the figure was 1.49.
Regarding “GTTGCGGCATGGACCGGTTTTCCCGGTAATCCGTATTTGCT (site TTTGCGGCTAG)”, the “recombinant UMI read abundance (log10)” value worked out at 0.731.
On to “GTTGGAACATGGACCGGTTTTCCCGGTAATCCGTATTTGCC (site GTTGGAACTGG)”, for which the “recombinant UMI read abundance (log10)” value was determined as 2.34.
Turning to “GTTGGAACATGGACCGGTTTTCCCGGTAATCCGTATTTGTT (site GTTGGAACTAA)”, the “recombinant UMI read abundance (log10)” value amounted to 2.
Next, “GTTGGTACATGGACCGGTTTTCCCGGTAATCCGTATTTGAC (site GTAGGTACTGT)”: 1.9; “GTTGGTACATGGACCGGTTTTCCCGGTAATCCGTATTTGAC (site GTCGGTACTGT)”: 2.31; “GTTGGTACATGGACCGGTTTTCCCGGTAATCCGTATTTGAC (site GTGGGTACTGT)”: 0.
Take “GTTGGTACATGGACCGGTTTTCCCGGTAATCCGTATTTGAC (site GTTGGTACTGT)”: the “recombinant UMI read abundance (log10)” value stood at 2.36.
Next, “GTTGTTACATGGACCGGTTTTCCCGGTAATCCGTATTTGCA (site GTTGTTACTTG)”: 2.25.
Next, “GTTGTTGCATGGACCGGTTTTCCCGGTAATCCGTATTTGGT (site GTTGTTACTAC)”: 0.375; “GTTGTTGCATGGACCGGTTTTCCCGGTAATCCGTATTTGGT (site GTTGTTCCTAC)”: 0.00209.
For “GTTGTTGCATGGACCGGTTTTCCCGGTAATCCGTATTTGGT (site GTTGTTGCTAC)”, the “recombinant UMI read abundance (log10)” value stood at 1.83.
With “GTTGTTGCATGGACCGGTTTTCCCGGTAATCCGTATTTGGT (site GTTGTTTCTAC)” the figure was 0.
Turning to “GTTTAAGCATGGACCGGTTTTCCCGGTAATCCGTATTTGAC (site GTTTAAGCTGT)”, the “recombinant UMI read abundance (log10)” value came to 2.24.
Next, “GTTTAGGCATGGACCGGTTTTCCCGGTAATCCGTATTTGCA (site GTTTAGGCTTG)”: 2.03; “GTTTAGTCATGGACCGGTTTTCCCGGTAATCCGTATTTGAT (site GTTTAGTCTAT)”: 1.59; “GTTTCGACATGGACCGGTTTTCCCGGTAATCCGTATTTGTC (site GTTTCGACTGA)”: 0.157.
Next, “GTTTGAGCATGGACCGGTTTTCCCGGTAATCCGTATTTGCA (site GTTAGAGCTTG)”: 1.32; “GTTTGAGCATGGACCGGTTTTCCCGGTAATCCGTATTTGCA (site GTTCGAGCTTG)”: 1.89; “GTTTGAGCATGGACCGGTTTTCCCGGTAATCCGTATTTGCA (site GTTGGAGCTTG)”: 1.55.
With “GTTTGAGCATGGACCGGTTTTCCCGGTAATCCGTATTTGCA (site GTTTGAGCTTG)” the figure was 2.07; with “GTTTGCACATGGACCGGTTTTCCCGGTAATCCGTATTTGTA (site GTATGCACTTA)”, 0.00807; with “GTTTGCACATGGACCGGTTTTCCCGGTAATCCGTATTTGTA (site GTCTGCACTTA)”, 0.253.
In the case of “GTTTGCACATGGACCGGTTTTCCCGGTAATCCGTATTTGTA (site GTGTGCACTTA)”, the “recombinant UMI read abundance (log10)” value amounted to 0.0346.
With “GTTTGCACATGGACCGGTTTTCCCGGTAATCCGTATTTGTA (site GTTTGCACTTA)” the figure was 0.721; with “GTTTGGACATGGACCGGTTTTCCCGGTAATCCGTATTTGAC (site GATTGGACTGT)”, 0.
With “GTTTGGACATGGACCGGTTTTCCCGGTAATCCGTATTTGAC (site GCTTGGACTGT)” the figure was 1; with “GTTTGGACATGGACCGGTTTTCCCGGTAATCCGTATTTGAC (site GGTTGGACTGT)”, 0; with “GTTTGGACATGGACCGGTTTTCCCGGTAATCCGTATTTGAC (site GTTTGGACTGT)”, 1.91.
With “TAAAGCCCATGGACCGGTTTTCCCGGTAATCCGTATTTGTA (site TAAAGACCTTA)” the figure was 0.00168.
In the case of “TAAAGCCCATGGACCGGTTTTCCCGGTAATCCGTATTTGTA (site TAAAGCCCTTA)”, the “recombinant UMI read abundance (log10)” value amounted to 1.58.
Next, “TAAAGCCCATGGACCGGTTTTCCCGGTAATCCGTATTTGTA (site TAAAGGCCTTA)”: 0.00691; “TAAAGCCCATGGACCGGTTTTCCCGGTAATCCGTATTTGTA (site TAAAGTCCTTA)”: 0.0272; “TAAAGGGCATGGACCGGTTTTCCCGGTAATCCGTATTTGTG (site TAAAGGGCTCA)”: 1.23.
Next, “TAAAGTACATGGACCGGTTTTCCCGGTAATCCGTATTTGTA (site TAAAGTACTTA)”: 1.41; “TAAAGTACATGGACCGGTTTTCCCGGTAATCCGTATTTGTA (site TAAAGTCCTTA)”: 0.00305.
With “TAAAGTACATGGACCGGTTTTCCCGGTAATCCGTATTTGTA (site TAAAGTGCTTA)” the figure was 0.204; with “TAAAGTACATGGACCGGTTTTCCCGGTAATCCGTATTTGTA (site TAAAGTTCTTA)”, 0.
With “TAAAGTCCATGGACCGGTTTTCCCGGTAATCCGTATTTGAA (site TAAAGTCCTTA)”, the “recombinant UMI read abundance (log10)” value was found to be 0.00424.
With “TAAAGTCCATGGACCGGTTTTCCCGGTAATCCGTATTTGAA (site TAAAGTCCTTC)” the figure was 0.144; with “TAAAGTCCATGGACCGGTTTTCCCGGTAATCCGTATTTGAA (site TAAAGTCCTTG)”, 0.
